Values of other authors in article PMC5560747, “Computational-experimental approach to drug-target interaction mapping: A case study on kinase inhibitors” (PLoS Computational Biology, 2017).

Experiments:
Design in all cases: method as in Gao et al. [42]
Details in all cases: ref Gao et al. [42], cited from earlier work
[1] = biological target: T1, FRK (Homo sapiens, UniProt P42685)
T1 construct: purchased SignalChem F14-11G-10

[2] = tested on: RET
[3] = tested on: BLK
[4] = biological target: T2, AXL (Homo sapiens, UniProt P30530)
T2 sequence (P30530 26-894): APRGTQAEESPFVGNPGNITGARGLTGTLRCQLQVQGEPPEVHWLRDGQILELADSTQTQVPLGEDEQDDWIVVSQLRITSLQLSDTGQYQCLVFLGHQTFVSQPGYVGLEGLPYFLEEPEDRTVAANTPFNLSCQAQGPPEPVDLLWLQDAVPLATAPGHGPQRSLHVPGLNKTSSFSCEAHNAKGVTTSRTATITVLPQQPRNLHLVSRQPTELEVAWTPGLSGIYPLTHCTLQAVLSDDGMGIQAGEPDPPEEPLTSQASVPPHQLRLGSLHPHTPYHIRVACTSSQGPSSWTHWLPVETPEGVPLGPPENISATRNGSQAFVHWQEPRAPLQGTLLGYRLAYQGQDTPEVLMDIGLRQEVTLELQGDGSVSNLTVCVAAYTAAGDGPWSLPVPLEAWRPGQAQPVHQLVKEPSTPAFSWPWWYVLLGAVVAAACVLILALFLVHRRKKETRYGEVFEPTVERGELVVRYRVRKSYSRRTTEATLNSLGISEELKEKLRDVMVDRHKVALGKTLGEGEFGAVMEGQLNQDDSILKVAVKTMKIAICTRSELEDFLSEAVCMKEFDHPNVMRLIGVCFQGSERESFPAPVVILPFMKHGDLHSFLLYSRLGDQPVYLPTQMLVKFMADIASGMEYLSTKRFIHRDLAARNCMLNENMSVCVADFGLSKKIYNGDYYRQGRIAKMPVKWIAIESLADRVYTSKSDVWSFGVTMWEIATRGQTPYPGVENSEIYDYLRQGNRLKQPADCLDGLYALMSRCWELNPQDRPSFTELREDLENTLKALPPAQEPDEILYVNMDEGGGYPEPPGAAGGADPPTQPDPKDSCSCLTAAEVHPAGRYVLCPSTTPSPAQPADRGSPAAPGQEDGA

[5] = biological target: T3, Aurora A (Homo sapiens, UniProt O14965)
T3 construct: purchased SignalChem A28-18G-10
T3 sequence (O14965 1-403): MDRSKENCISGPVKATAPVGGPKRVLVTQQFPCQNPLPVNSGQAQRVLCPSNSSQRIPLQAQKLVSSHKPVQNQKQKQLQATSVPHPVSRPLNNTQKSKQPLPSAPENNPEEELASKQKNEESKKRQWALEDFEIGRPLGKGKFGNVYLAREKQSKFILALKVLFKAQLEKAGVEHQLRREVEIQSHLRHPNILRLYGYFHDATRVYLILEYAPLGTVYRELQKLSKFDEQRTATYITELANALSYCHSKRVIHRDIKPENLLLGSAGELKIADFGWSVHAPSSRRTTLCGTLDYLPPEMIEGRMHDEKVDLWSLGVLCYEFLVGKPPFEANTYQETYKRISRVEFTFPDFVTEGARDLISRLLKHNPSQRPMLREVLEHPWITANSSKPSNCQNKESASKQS

[6] = tested on: FER
[7] = tested on: RPS6KA5
[8] = biological target: PYK2 (Homo sapiens, UniProt Q14289)
Chain of PYK2 (Q14289 whole entry): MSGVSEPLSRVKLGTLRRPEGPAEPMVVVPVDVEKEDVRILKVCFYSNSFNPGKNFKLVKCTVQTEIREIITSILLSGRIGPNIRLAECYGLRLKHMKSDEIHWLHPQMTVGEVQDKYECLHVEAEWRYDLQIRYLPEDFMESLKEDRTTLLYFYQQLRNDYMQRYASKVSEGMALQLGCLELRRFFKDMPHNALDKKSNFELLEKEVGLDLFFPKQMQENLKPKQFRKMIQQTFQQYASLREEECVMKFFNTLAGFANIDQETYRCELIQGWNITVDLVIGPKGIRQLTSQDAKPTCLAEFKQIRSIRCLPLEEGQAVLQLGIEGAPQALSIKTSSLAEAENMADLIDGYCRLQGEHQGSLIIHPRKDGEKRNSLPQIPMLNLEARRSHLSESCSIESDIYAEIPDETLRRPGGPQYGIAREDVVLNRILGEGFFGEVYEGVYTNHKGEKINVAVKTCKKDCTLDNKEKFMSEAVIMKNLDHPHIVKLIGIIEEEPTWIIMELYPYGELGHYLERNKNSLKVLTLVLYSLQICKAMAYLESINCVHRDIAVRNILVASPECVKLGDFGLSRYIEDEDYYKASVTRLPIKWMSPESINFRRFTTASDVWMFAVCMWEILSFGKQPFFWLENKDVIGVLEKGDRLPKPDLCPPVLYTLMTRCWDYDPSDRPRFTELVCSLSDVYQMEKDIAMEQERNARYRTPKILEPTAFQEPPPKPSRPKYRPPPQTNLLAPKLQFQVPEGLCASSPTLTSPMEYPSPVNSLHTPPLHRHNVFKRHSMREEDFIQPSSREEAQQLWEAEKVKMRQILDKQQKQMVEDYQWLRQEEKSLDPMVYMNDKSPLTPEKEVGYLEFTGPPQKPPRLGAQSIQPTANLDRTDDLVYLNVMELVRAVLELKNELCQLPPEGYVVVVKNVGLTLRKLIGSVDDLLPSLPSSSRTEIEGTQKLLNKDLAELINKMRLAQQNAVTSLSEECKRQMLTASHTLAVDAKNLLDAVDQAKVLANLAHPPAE

[9] = tested on: FES
[10] = tested on: IKKb
[11] = tested on: GSK3b
[12] = tested on: PIM2
[13] = tested on: LIMK1
[14] = tested on: ROCK1
[15] = tested on: IRAK4
[16] = tested on: CDK5/p25
[17] = tested on: CDC42BPA
[18] = tested on: IRAK1
[19] = tested on: BRSK1
[20] = tested on: CSNK1D

T1 sequence (P42685 whole entry): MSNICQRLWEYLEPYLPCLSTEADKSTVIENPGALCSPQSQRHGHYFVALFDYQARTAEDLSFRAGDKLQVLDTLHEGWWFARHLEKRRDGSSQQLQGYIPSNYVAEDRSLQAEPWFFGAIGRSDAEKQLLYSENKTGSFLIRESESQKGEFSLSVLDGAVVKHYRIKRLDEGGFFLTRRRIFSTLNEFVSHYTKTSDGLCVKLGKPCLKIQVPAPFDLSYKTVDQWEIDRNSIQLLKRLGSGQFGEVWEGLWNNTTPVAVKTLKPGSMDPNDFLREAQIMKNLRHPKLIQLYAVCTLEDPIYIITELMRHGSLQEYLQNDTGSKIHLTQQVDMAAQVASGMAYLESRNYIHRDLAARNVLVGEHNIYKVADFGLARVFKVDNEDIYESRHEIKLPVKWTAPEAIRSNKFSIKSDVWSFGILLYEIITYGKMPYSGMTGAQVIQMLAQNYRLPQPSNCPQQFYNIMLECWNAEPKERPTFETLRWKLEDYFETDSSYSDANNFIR

COc1cc2nccc(Oc3ccc(NC(=O)Nc4cc(C)on4)c(Cl)c3)c2cc1OC [TIVOZANIB, Tivozanib]
Gao et al. % of activity remaining at 1 µM ([1]; 1 µM): 2% | Gao et al. % of activity remaining at 10 µM ([1]; 10 µM): -3% | Gao et al. % of activity remaining at 1 µM ([2]; 1 µM): 0% | Gao et al. % of activity remaining at 10 µM ([2]; 10 µM): -1% | Gao et al. % of activity remaining at 1 µM ([3]; 1 µM): 2% | Gao et al. % of activity remaining at 10 µM ([3]; 10 µM): 0% | Gao et al. % of activity remaining at 1 µM ([4]; 1 µM): 12% | Gao et al. % of activity remaining at 10 µM ([4]; 10 µM): 10% | Gao et al. % of activity remaining at 1 µM ([5]; 1 µM): 7% | Gao et al. % of activity remaining at 10 µM ([5]; 10 µM): 7% | Gao et al. % of activity remaining at 1 µM ([6]; 1 µM): 87% | Gao et al. % of activity remaining at 10 µM ([6]; 10 µM): 16% | Gao et al. % of activity remaining at 1 µM ([7]; 1 µM): 107% | Gao et al. % of activity remaining at 10 µM ([7]; 10 µM): 80% | Gao et al. % of activity remaining at 1 µM ([8]; 1 µM): 34% | Gao et al. % of activity remaining at 10 µM ([8]; 10 µM): 8% | Gao et al. % of activity remaining at 1 µM ([9]; 1 µM): 78% | Gao et al. % of activity remaining at 10 µM ([9]; 10 µM): 46% | Gao et al. % of activity remaining at 1 µM ([10]; 1 µM): 104% | Gao et al. % of activity remaining at 10 µM ([10]; 10 µM): 102% | Gao et al. % of activity remaining at 1 µM ([11]; 1 µM): 104% | Gao et al. % of activity remaining at 10 µM ([11]; 10 µM): 94% | Gao et al. % of activity remaining at 1 µM ([12]; 1 µM): 114% | Gao et al. % of activity remaining at 10 µM ([12]; 10 µM): 103% | Gao et al. % of activity remaining at 1 µM ([13]; 1 µM): 67% | Gao et al. % of activity remaining at 10 µM ([13]; 10 µM): 14% | Gao et al. % of activity remaining at 1 µM ([14]; 1 µM): 113% | Gao et al. % of activity remaining at 10 µM ([14]; 10 µM): 112% | Gao et al. % of activity remaining at 1 µM ([15]; 1 µM): 85% | Gao et al. % of activity remaining at 10 µM ([15]; 10 µM): 47% | Gao et al. % of activity remaining at 1 µM ([16]; 1 µM): 90% | Gao et al. % of activity remaining at 10 µM ([16]; 10 µM): 95% | Gao et al. % of activity remaining at 1 µM ([17]; 1 µM): 116% | Gao et al. % of activity remaining at 10 µM ([17]; 10 µM): 102% | Gao et al. % of activity remaining at 1 µM ([18]; 1 µM): 82% | Gao et al. % of activity remaining at 10 µM ([18]; 10 µM): 92% | Gao et al. % of activity remaining at 1 µM ([19]; 1 µM): 65% | Gao et al. % of activity remaining at 10 µM ([19]; 10 µM): 46% | Gao et al. % of activity remaining at 1 µM ([20]; 1 µM): 85% | Gao et al. % of activity remaining at 10 µM ([20]; 10 µM): 61%
